Columns and labels:
[1] = biological target: T1, 60 DUBs in HEK293AD lysate (Homo sapiens, UniProt Q93009); experiment: In situ DUB profiling: competitive ABPP with Bio-Ub-PA/Bio-Ub-VME and quantitative MS; type: binding; conditions: HEK293 crude cell extract, 5 hours pre-incubation
T1 construct: endogenous in cells; host or cells: HEK 293AD lysate
Description: (§1) DUB profiling was performed using conditions similar to those in Lawson et al[63]. HEK 293AD cells were lysed using target engagement lysis buffer (50 mM Tris pH 8.0, 150 mM NaCl, 5 mM MgCl2, 0.5 mM EDTA, 0.5% NP-40, 10% glycerol, 1 mM TCEP, protease and phosphatase inhibitors), and the lysate was cleared by centrifugation. Samples were diluted to 2 mg/mL, and 1 mL lysate was incubated with the indicated concentration of XL177A for 5 hours at RT. Excess inhibitor was removed using a 30 K Amicon spin filter, then the resulting lysate was incubated with 1 μM each of Biotin-Ub-PA and Biotin-Ub-VME for 90 minutes at RT. SDS was added to a final concentration of 1.2%, and samples were heated to 80 °C for 5 minutes. After cooling to RT, 1X PBS was added to dilute the final SDS concentration to 0.2%. 100 μL streptavidin agarose slurry was added to each sample, followed by incubation at RT for 3 hours. After streptavidin enrichment, samples were washed vigorously (2×0.2% SDS, 3x PBS, 3x ddH2O). […]
(§2) To remove rapigest, recovered supernatants were acidified with 10% TFA, incubated at 37 °C for 45 minutes, and centrifuged at 14,000 rpm for 15 minutes at 4 °C. […] Eluted peptides were then analyzed by nanoflow LC-MS/MS as described[64] with a NanoAcquity UPLC system (Waters, Milford, MA) interfaced to a QExactive HF mass spectrometer (Thermofisher Scientific, San Jose, CA). […]

[2] = test system: 60 DUBs in HEK293AD lysate; experiment: as above; type: binding, human; conditions: in vitro and activity-based proteomic profiling
Description: as §1, §2

T1 sequence (Q93009 whole entry): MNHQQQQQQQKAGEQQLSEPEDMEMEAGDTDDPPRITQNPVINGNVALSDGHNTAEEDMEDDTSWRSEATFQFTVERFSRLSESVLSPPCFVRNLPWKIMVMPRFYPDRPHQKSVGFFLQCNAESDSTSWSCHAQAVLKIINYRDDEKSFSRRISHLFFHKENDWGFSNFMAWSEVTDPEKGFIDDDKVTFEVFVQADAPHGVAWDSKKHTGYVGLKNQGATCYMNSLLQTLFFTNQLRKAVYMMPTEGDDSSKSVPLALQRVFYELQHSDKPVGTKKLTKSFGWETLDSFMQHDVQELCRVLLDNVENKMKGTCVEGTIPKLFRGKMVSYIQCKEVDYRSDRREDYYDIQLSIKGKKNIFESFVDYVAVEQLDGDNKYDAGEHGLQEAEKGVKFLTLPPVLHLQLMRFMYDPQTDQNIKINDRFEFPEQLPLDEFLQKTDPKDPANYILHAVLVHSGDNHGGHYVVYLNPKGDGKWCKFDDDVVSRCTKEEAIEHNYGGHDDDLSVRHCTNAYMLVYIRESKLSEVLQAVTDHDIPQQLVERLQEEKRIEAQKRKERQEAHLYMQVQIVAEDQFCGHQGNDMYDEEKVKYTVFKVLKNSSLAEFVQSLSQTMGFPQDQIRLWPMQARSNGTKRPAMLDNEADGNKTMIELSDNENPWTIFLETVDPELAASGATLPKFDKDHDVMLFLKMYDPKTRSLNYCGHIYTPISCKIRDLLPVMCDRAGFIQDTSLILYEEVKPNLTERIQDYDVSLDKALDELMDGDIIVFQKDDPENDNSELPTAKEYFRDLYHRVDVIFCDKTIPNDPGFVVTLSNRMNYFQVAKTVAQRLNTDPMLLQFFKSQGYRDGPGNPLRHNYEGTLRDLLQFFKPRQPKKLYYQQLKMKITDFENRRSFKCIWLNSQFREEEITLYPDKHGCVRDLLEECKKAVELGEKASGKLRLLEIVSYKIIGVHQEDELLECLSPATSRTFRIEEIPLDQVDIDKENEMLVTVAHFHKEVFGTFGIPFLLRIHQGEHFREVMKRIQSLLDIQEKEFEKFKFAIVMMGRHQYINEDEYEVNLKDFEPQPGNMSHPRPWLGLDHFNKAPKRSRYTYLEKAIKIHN

USP7 labeling by DUB ABPs [1]: significantly blocked USP7 labeling
Structure (SMILES): CN1CCN(CCC(=O)Nc2ccc3c(=O)n(CC4(O)CCN(C(=O)[C@@H](CCCNC(=O)c5ccc6c(Cl)c7c(nc6c5)CCCC7)Cc5ccccc5)CC4)cnc3c2)CC1 [XL177A]
selectivity for USP7 over closely related DUBs [2]: > 10 fold

— publication PMC7093416, “Selective USP7 inhibition elicits cancer cell killing through a p53-dependent mechanism” (Scientific Reports, 2020)
